# According to PubChem BioAssay AID179 (DTP/NCI, 2004):
# Calls of active or inactive are those of the source.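 How the source made its calls: active means compounds giving half or more protection of infected cells from virus-caused growth loss, again on retest; inactive means the rest.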 Where a SMILES comes first, the peptide text is derived from it.
# Tested on: CEM cells HIV-1 protection, formazan growth assay
# Assay: NCI AIDS Antiviral Assay
# Details: for IC50: measured here: growth of uninfected CEM cells
# Summary of the method: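 CEM (human) cells, HIV-1 infected vs uninfected, 5-point dosing, formazan growth read-out. Retest threshold 50% protection.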
SMILES,EC50,IC50,outcome
CC(=O)NC(Cc1ccccc1)NC(=O)O (stereo not given),> 200 µM,> 200 µM,–
Cc1cc(S(=O)(=O)Nc2n[nH]c(-c3ccc(Cl)cn3)n2)c(S)cc1Cl,> 148 µM,123 µM,–
CC(C(=O)Oc1ccc2ccccc2c1-c1c(O)ccc2ccccc12)c1ccccc1 (stereo not given),> 2.51 µM,> 2.51 µM,–
CC(=O)NC(CCCN)C(=O)NCc1ccccc1 (stereo not given),> 955 µM,> 955 µM,–
CN(C)C=Nc1cccc2cnccc12,> 200 µM,166 µM,–
COC(=O)C1=C(C(=O)OC)C(C(=O)OC)C(C(=O)OC)C(C(=O)OC)(C(=O)OC)C(C(=O)OC)=C1C(=O)OC (stereo not given),–,–,inactive
Brc1ccccc1C1SCc2nc3ccccc3n21 (stereo not given),–,–,inactive
CC(=O)Nc1cc2ccc(C)nc2c2nc(C)ccc12.CC(=O)Nc1cc2ccc(C)nc2c2nc(C)ccc12.O=C1OC(C(O)C[O-])C(O)=C1O.[Cu+],> 12.6 µM,2.09 µM,–
CCCCC1CC(c2ccc(Cl)cc2)=NO1 (stereo not given),> 21.9 µM,> 21.9 µM,–
CC(C)N(CCn1c2c3ccccc3ccc2c2oc(=O)c3ccccc3c21)C(C)C,> 22.4 µM,> 22.4 µM,–
CCOC(=O)C(=O)Nc1cccc(Cl)c1C,> 741 µM,> 741 µM,–
Cc1noc(NS(=O)(=O)c2ccc(NC(=O)c3ccc4[nH]c5ccccc5c(=O)c4c3)cc2)c1C,> 200 µM,44.7 µM,–
CC(=O)OC1C2CCC1C1C2N=NN1c1ccc([N+](=O)[O-])cc1 (stereo not given),> 151 µM,> 151 µM,–
Cc1nc2ccccc2c(=O)n1Nc1ccc(C(=O)O)cc1,–,–,inactive
O=c1[nH]c(=O)n(C2CC(O)C(CO)O2)c2nc3ccc4cc5ccccc5cc4c3nc12 (stereo not given),> 50.1 µM,39.8 µM,–
O=c1[nH]c2ccccc2nc1/C=C/NC(=S)NCc1ccccc1,–,–,inactive
C#C[C@]1(O)CC[C@H]2[C@@H]3CCC4=C/C(=N/OCCN(C)C)CC[C@]4(C)[C@H]3CC[C@@]21C,> 100 µM,4.79 µM,–
C/C(=N\NC(=S)Nc1ccc(C(=O)O)cc1)c1ccccn1,> 110 µM,18.2 µM,–
Cn1cc(NC(=O)Nc2cc(C(=O)Nc3cc(C(=O)Nc4ccc5cc(S(=O)(=O)O)cc(S(=O)(=O)O)c5c4)n(C)c3)n(C)c2)cc1C(=O)Nc1cc(C(=O)Nc2ccc3cc(S(=O)(=O)O)cc(S(=O)(=O)O)c3c2)n(C)c1,33.9 µM,> 100 µM,–
O=c1cc(-c2ccccc2)oc2cc(OCC(O)COc3ccc4c(=O)cc(-c5ccccc5)oc4c3)ccc12,> 25.7 µM,> 25.7 µM,–
Nc1ncnc2c1ccn2CC=C(CO)CO,> 200 µM,> 200 µM,–
CCC(C)C(NC(=O)C(CCCN=C(N)N)NC(=O)C(CC(N)=O)NC(=O)C(Cc1ccc(O)cc1)NC(=O)C(N)CC(C)C)C(=O)NC(C(=O)NC(CC(C)C)C(=O)NC(CCCN=C(N)N)C(=O)NC(Cc1ccc(O)cc1)C(=O)O)C(C)CC (stereo not given) (H-LYNRIILRY-OH; configuration not given here),> 40.7 µM,23.4 µM,–
CCOC(=O)/C(C(=S)NCc1ccccc1)=C(/N)N1CCCC1,> 200 µM,> 200 µM,–
CCCCC(Sc1cc(Cl)c(C)cc1S(=O)(=O)Nc1n[nH]c(N)n1)C(=O)OC (stereo not given),> 200 µM,> 100 µM,–
CCCCCCCOc1ccc(/C=C\c2cc[n+](CCCCCCCC[n+]3ccc(/C=C\c4ccc(OCCCCCCC)cc4)cc3)cc2)cc1,> 6.46 µM,> 6.46 µM,–
SCc1ccc(-c2ccc(CS)cc2)cc1,> 4.27 µM,> 4.27 µM,–
Cc1ccc(S(=O)OC23CC4CC(CC(C4)C2)C3)cc1 (stereo not given),–,–,inactive
COC1/C=C/OC2(C)Oc3c(C)c(O)c4c(O)c(c(/C=N/Nc5ccc([N+](=O)[O-])cc5[N+](=O)[O-])c(O)c4c3C2=O)NC(=O)C(C)=C/C=C/C(C)C(O)C(C)C(O)C(C)C(OC(C)=O)C1C (stereo not given),> 200 µM,7.08 µM,–
CSc1ncnc2c1ncn2CCC(=O)O,> 200 µM,> 200 µM,–
[N-]=[N+]=NC[C@H]1OCO[C@H](CN=[N+]=[N-])[C@H]2OCCOCCOc3ccccc3OCCOCCO[C@@H]21,> 200 µM,> 200 µM,–
